Experiments:
[1] = tested on: experimental autoimmune encefalomyelitis (EAE); conditions: administration to EAE mice; for MR inhibitors also in mice that did not receive aldosterone; cited from earlier work
[2] = tested on: dendritic cells / CD4+ T-cells; conditions: cited from earlier work
[3] = tested on: CD8+ or CD4+ T-lymphocytes co-cultured with antigen-presenting cells (dendritic cells); assay: T-lymphocyte activation by ovalbumin-pulsed antigen-presenting cells, IL-2 ELISA; assay type: cell-based, transgenic mice; conditions: 5 ug/ml during co-culture, 24 hrs, antigen-presenting cells pulsed with 10 ug/ml ovalbumin (FIG. 2)
Description: FIG. 2. Plots showing the effect of a composition comprising spironolactone in the inhibition of activation of T-lymphocytes through antigen-presenting cells. Antigen-presenting cells (dendritic cells) were pulsed with ovalbumin, washed and co-cultured with CD8+ or CD4+T-lymphocytes obtained from transgenic mice whose TCR specifically recognizes an ovalbumin derived peptide charged on class I or II MHC respectively. At the same time, the culture was treated with spironolactone (-□-) eplerenone (-▾-) or not treated (control -▴-) and after 24 hours, the supernatant was withdrawn and the presence of interleukin-2 (IL-2) assayed using ELISA. *p<0.05 one-way ANOVA.
Antigen-presenting cells were pulsed with 10 ug/ml of ovalbumin (OVA) protein over 24 hrs, washed and then co-cultured with CD8+ or CD4+T-lymphocytes obtained from transgenic mice whose TCR recognizes specifically a ovalbumin derived peptide charged in MHC class I or II, respectively. […] After 24 hrs, the supernatant was withdrawn and IL-2 secretion, a cytokine secreted by activated T-lymphocytes, was assayed using ELISA assay. In this specific immunological test, it is expected the activation of said T-lymphocytes and, therefore, an increase in IL-2 secretion.

[4] = tested on: purified CD8+ T-lymphocytes; assay: T-lymphocyte activation by plate-bound anti-CD3ε independent of antigen-presenting cells, IL-2 ELISA; assay type: cell-based; conditions: 5 ug/ml, 24 hrs, plate activated with different concentrations of anti-CD3ε (FIG. 3)
Description: FIG. 3: Plots showing the effect of a composition comprising spironolactone or epleronone in the activation of T-lymphocytes independent from antigen-presenting dendritic cells. An ELISA plate was activated with different concentrations of anti-CD3ε overnight, and then purified CD8+ T-lymphocytes were added and treated for 24 hrs with spironolactone (-□-), eplerenone (-▾-) o not treated (control -▴-). When the time was completed the supernatant was extracted and the IL-2 levels were determined using ELISA.
The following experiment was made in order to determine if spironolactone acts directly on T-lymphocytes or the effect is on the function of antigen-presenting cells. An ELISA plate was activated with different concentrations of anti-CD3ε overnight, and then, purified CD8+T-lymphocytes were added and treated with either spironolactone or epleronone (5 ug/ml) during 24 hrs. After that period, the supernatant was withdrawn and IL-2 levels were determined using ELISA. This assay is based on that T-lymphocytes, beside expressing TCR, express a protein denominated CD3, which transduces the activating signal, generated by the interaction of TCR with the antigenic peptide bound to the MHC of the antigen-presenting cell, to the interior of the T-lymphocyte.

[5] = tested on: immune synapsis between T-lymphocytes and antigen-presenting cells; assay: Immune synapsis between antigen-presenting cells and T-lymphocytes, Golgi polarization by confocal fluorescence microscopy; assay type: cell-based; conditions: 5 ug/ml in culture medium, co-culture 2 hrs (FIG. 4B)
Excerpt: FIG. 4: Photographs using confocal fluorescence microscopy, showing immunological synapsis between antigen-presenting dendritic cells and T-lymphocyte. T-lymphocytes were dyed with BODIPY FL C5-Ceramide, which is directed to the Golgi apparatus, while antigen-presenting cells were dyed with CMTMR-Orange and co-cultured without spironolactone (FIG. 4A) or in the presence of spironolactone (FIG. 4B) during 2 hrs, afterwards, the cells were observed under a confocal fluorescence microscope.
It has been determined that an efficient activation of T-lymphocytes requires an stable interaction between the antigen-presenting cell and the T-lymphocyte, which is known as “immune synapsis”. A stable immune synapsis is translated in a polarization of the Golgi apparatus, an organelle in charge of protein transport, of the T-lymphocyte towards the contacting site with the antigen-presenting cell. In this way, it is possible to observe an efficient immune synapsis checking if a polarization from Golgi apparatus towards the contacting site with the antigen-presenting cell exists or not. […] Afterwards, both cell groups were contacted and the interaction between cells using a confocal fluorescence microscope was observed. […]

[6] = tested on: experimental autoimmune encefalomyelitis (EAE) induced with MOG 35-55 peptide; assay: Effect of a spironolactone composition in EAE mice (clinical score); assay type: in vivo, C57BL/6 female mice; conditions: EAE induced C57BL/6 mice, pellets supplemented with daily dose of 1.8 mg per mouse, oral, vs control group on standard pellets (FIG. 1)
[7] = tested on: systemic lupus erythematosus-like disease in FcγII receptor knockout mice; assay: Effect of spironolactone in systemic lupus erythematosus mice; assay type: in vivo; conditions: pellets supplemented with 1.8 mg daily, oral, compared to regularly fed mice (FIG. 5)

| SMILES | effect on disease in EAE mice [1] | induction of T helper 17 (Th17) phenotype in CD4+ T-cells by stimulated dendritic cells ([2]; dendritic cells stimulated with aldosterone) | activation of T-lymphocytes (IL-2 secretion, ELISA) [3] | suppression of activator effects of aldosterone in the function of dendritic cells [2] | secretion of IL-2 (ELISA) [4] | immune synapsis (polarization of the Golgi apparatus of the T-lymphocyte towards the antigen-presenting cell) [5] | clinical score associated with the disease [6] | deposition of immune complexes in the kidney [7] |
| --- | --- | --- | --- | --- | --- | --- | --- | --- |
| C[C@]12CCC(=O)C=C1CC[C@@H]1[C@@H]2[C@@H](O)C[C@]2(C=O)[C@@H](C(=O)CO)CC[C@@H]12 [aldosterone] | showed a deterioration in their disease | induce the T helper 17 (Th17) phenotype in CD4+ T-cells |  |  |  |  |  |  |
| COC(=O)[C@@H]1CC2=CC(=O)CC[C@]2(C)[C@@]23O[C@@H]2C[C@@]2(C)[C@@H](CC[C@@]24CCC(=O)O4)[C@H]13 [epleronone] |  |  | no such inhibiting effect on the activation of T-lymphocytes is observed | could be suppressed |  |  |  |  |
| CC(=O)S[C@@H]1CC2=CC(=O)CC[C@]2(C)[C@H]2CC[C@@]3(C)[C@@H](CC[C@@]34CCC(=O)O4)[C@H]12 [spironolactone] | only spironolactone had protecting effects |  | inhibits the activation of T-lymphocytes | could be suppressed | same inhibiting effect on the secretion of IL-2 | immune synapsis is not produced | significantly reduces the clinical score | did not observe a decrease in the deposition of immune complexes in the kidney |

From US9849141B2, “Use of spironolactone-based composition that exhibits an inhibitory action on T-lymphocyte activation which is useful for preventing and/or treating multiple sclerosis” (PONTIFICIA UNIVERSIDAD CATOLICA DE CHILE, priority 2010, dated 2017)
